Here are results for eight molecules from patent publication US8759323B2, “Protein phosphatase inhibitor” (LSIP, LLC, priority 2008, dated 2014).

The structures appear in SMILES notation. Where two headings read alike, the source gives them in different places.

Holding throughout (assay type): biochemical
Test [1] concerns the target T1, PPM1D protein catalytic domain (positions 1 to 420), His tag fusion (Homo sapiens, UniProt O15297).
T1 construct: the catalytic domain (the positions 1 to 420) of PPM1D protein; His tag; made in house; host or cells: E. coli (pColdI vector)
T1 sequence (O15297 1-420): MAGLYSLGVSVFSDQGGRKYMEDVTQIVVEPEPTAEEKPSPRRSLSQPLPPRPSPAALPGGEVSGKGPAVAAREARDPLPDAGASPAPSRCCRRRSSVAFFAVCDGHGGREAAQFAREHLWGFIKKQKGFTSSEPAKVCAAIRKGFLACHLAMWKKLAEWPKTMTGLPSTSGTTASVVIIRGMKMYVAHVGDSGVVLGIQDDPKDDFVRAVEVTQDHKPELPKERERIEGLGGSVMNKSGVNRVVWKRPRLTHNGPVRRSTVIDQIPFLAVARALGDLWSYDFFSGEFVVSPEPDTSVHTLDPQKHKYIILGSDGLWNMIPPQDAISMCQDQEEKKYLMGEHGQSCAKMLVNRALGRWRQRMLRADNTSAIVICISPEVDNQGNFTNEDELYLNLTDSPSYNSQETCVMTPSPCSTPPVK
Kind of test: PPM1D-inhibitory activity, single concentration (Test Example 1, BIOMOL GREEN free phosphate). Details: dose or concentration left out as unconfirmed. As to conditions: read-out: Rate of PPM1D inhibition (: %). The protocol: The PPM1D-inhibitory activity of the compound of the present invention (1) was measured.
Into a pColdI vector (TaKaRa Bio Inc.), cDNA encoding the catalytic domain (the positions 1 to 420) of PPM1D protein (Protein ID: O15297/cDNA ID: U70385) was introduced, and the PPM1D protein was expressed in E. coli as a His tag fusion protein. The protein of interest was purified by metal affinity chromatography with BD-TALON resin (CLONTECH), and then eluted with an elution buffer (150 mM imidazole, PBS (pH 7.5), 500 mM NaCl, 10% glycerol, 0.2% ethanol, and 1 mM 2-mercaptoethanol). The PPM1D protein thus eluted was dialyzed against a dialysis buffer (50 mM Tris-HCl (pH 7.5), 0.1 mM EGTA, and 0.02% 2-mercaptoethanol) for 16 hours, and then stored at −80° C. as a 50% glycerol stock (an enzyme concentration of 1 μM).
The enzyme that was expressed and purified by the aforementioned method was used for analysis of the inhibitory effect of the compound on PPM1D. […] A purified phospho-p53 peptide was dissolved in H2O to prepare a 400 μM original substrate solution. The test compound of Example 1 (inhibitor) was dissolved in ethanol (EtOH) to a concentration of 40 mM, and then diluted with dimethyl sulfoxide (DMSO) to adjust an original inhibitor solution with a concentration of 4 mM in advance. Other inhibitors were dissolved in dimethyl sulfoxide (DMSO) to prepare original inhibitor solutions with a concentration of 4 mM. 30 μL of a mixed solution of the inhibitor and the substrate (66.7 μM phosphorylated peptide substrate, […], 1.7% DMSO (in the case of Example 1, 1.5% DMSO and 0.2% EtOH), and 13 mM Tris-HCl (pH 8.0)) was kept warm at 30° C., to which 20 μL of a mixed solution of an enzyme and a metal ion kept at 4° C. (10 nM PPM1D, 125 mM Tris-HCl (pH 7.5), 0.25 mM EGTA, 0.05% 2-mercaptoethanol, and 75 mM MgCl2) was added. The resulting mixture was incubated at 30° C. for 10 minutes, and then the inhibitory activity on PPM1D was measured. The enzyme reaction was terminated with addition of 100 μL of a BIOMOL GREEN reagent (Biomol), and 30 minutes later, the absorbance at 620 nm was measured to detect phosphoric acid freed by PPM1D. The inhibitory effect on PPM1D was analyzed by measuring, from the absorbance measured at 620 nm, the amount of free phosphoric acid reduced due to the addition of the inhibitor with respect to the amount of free phosphoric acid in the case of addition of DMSO not including the inhibitor.

The target of test [2] is T2, full length PPM1A (382 residues) (Homo sapiens, UniProt P35813).
T2 construct: cDNA encoding full length PPM1A (382 residues); His tag (inferred: same pColdI vector, purified like His-PPM1D); made in house; host or cells: E. coli (pColdI vector)
T2 sequence (P35813 1-382): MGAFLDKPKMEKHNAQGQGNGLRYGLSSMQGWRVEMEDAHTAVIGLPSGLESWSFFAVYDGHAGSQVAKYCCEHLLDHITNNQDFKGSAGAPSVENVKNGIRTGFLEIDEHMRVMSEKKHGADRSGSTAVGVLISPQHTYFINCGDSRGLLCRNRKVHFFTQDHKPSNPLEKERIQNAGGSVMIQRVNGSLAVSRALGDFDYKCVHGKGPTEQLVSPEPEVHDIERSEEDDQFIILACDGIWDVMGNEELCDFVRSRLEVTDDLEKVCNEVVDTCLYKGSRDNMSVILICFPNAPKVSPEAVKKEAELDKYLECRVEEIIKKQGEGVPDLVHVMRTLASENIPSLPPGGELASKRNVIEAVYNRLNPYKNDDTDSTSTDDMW
Kind of test: PPM1A inhibitory activity (Test Example 2). As to conditions: 16 nM PPM1A, phospho-p38 peptide analog substrate, MnCl2. The protocol: In order to analyze the enzyme selectivity of the inhibitor, the inhibitory effect on PPM1A, which belongs to the PPM1 family as PPM1D does, was analyzed and compared with the inhibitory effect on PPM1D. Into a pColdI vector, cDNA encoding full length PPM1A (382 residues) (Protein ID: P35813/cDNA ID: S87759) was introduced, and the PPM1A was expressed in E. coli and then purified similarly to PPM1D. The inhibitory activity on 16 nM purified PPM1A was measured. As a substrate of PPM1A, a phospho-p38 peptide analog (Ac-Asp-Asp-Glu-Nle-Thr(P)-Gly-Tyr(P)-Val-Ala-Thr-Arg-NH2: Thr(P), Tyr(P), and Nle indicate phosphorylated Thr, phosphorylated Tyr, and norleucine, respectively) was used.
30 μL of a mixed solution of the inhibitor and the substrate (66.7 μM phosphorylated peptide substrate, each concentration of the inhibitor, 1.7% DMSO (for the test compound of Example 1, 1.5% DMSO and 0.2% EtOH), and 13 mM Tris-HCl (pH 8.0)) was kept warm at 30° C., to which 20 μL of a mixed solution of an enzyme and a metal ion kept at 4° C. (40 nM PPM1A, 125 mM Tris-HCl (pH 7.5), 0.25 mM EGTA, 0.05% 2-mercaptoethanol, and 25 mM MnCl2) was added. The resulting mixture was incubated at 30° C. for 10 minutes, and then the inhibitory activity on PPM1A was measured. […]

Test [3] has as its target T3, PPM1D (Homo sapiens, UniProt O15297).
T3 construct: the catalytic domain (the positions 1 to 420) of PPM1D protein; His tag; made in house; host or cells: E. coli (pColdI vector)
T3 sequence (O15297 1-420): T1 sequence (O15297 1-420)
Kind of test: PPM1D IC50, inhibition constant (Ki) and selectivity (Test Example 2). As to conditions: for Ki: PPM1D, phospho-p53 (Ser 15) peptide analog substrate 5-40 μM; for IC50: inhibitor 0-40 μM, measured three times. The procedure: The inhibitory activity on PPM1A, PP2A, and PPM1D at each final concentration of the inhibitor (0, 0.1, 0.2, 0.4, 1, 2, 4, 10, or 40 μM) was measured three times with respect to each concentration, and the concentration of the inhibitor required for 50% inhibition of the enzyme activity (IC50) was determined.
The original inhibitor solution was diluted with a solvent (DMSO, (for the test compound of Example 1, 90% DMSO and 10% EtOH)) to prepare each concentration of an inhibitor solution.
Other conditions for measurement of the enzyme activity are the same as those in Test Example 1.
The enzyme selectivity of the inhibitor was analyzed by comparing the IC50 values of the inhibitor on PPM1D, PPM1A, and PP2A.
Also, the inhibition constant of the inhibitor (Ki) and the inhibition pattern were measured as follows.
As a substrate, a phospho-p53 (Ser 15) peptide analog (Ac-Val-Glu-Pro-Pro-Leu-Ser(P)-[…]NH2: Ser(P) indicates phosphorylated Ser) was used. 30 μL of a mixed solution of the inhibitor and the substrate (each concentration of the phosphorylated peptide substrate, each concentration of the inhibitor, 1.7% DMSO (in the case of Example 1, 1.5% DMSO and 0.2% EtOH), and 13 mM Tris-HCl (pH 8.0)) was kept warm at 30° C., to which 20 μL of a mixed solution of an enzyme and a metal ion kept at 4° C. (10 nM PPM1D, 125 mM Tris-HCl (pH 7.5), 0.25 mM EGTA, 0.05% 2-mercaptoethanol, and 75 mM MgCl2) was added. The resulting mixture was incubated at 30° C. for 10 minutes, and then the inhibitory activity on PPM1D was measured.
The activity on PPM1D was measured at each concentration of the phosphorylated peptide substrate (5, 10, 20, and 40 μM), and at each final concentration of the inhibitor (0, 0.3, 0.4, and 0.6 μM (the compound of Example 1 [Compound 1]) or 0, 0.4, and 1.2 μM (the compound of Example 5 [Compound 2]). The enzyme reaction was terminated with addition of 50 μL of a BIOMOL GREEN reagent (Biomol) to a reaction solution, and 30 minutes later, the absorbance at 620 nm was measured to detect phosphoric acid freed by PPM1D.
Based on the results thus obtained, Ki (μM) was calculated.

Test [4] deals with T4, PP2A (Homo sapiens, UniProt P67775).
T4 construct: purchased Promega K.K
Kind of test: PP2A inhibitory activity (Test Example 2). As to conditions: with addition of 40 μM inhibitor. The protocol:
Also, in order to analyze the enzyme selectivity of the inhibitor within the Ser/Thr phosphatase family, the inhibitory effect on PP2A (Protein ID: P67775/cDNA ID: X12649), which belongs to the PPP family, was analyzed. PP2A was purchased from Promega K.K. As a substrate of PP2A, a phospho-p38 peptide analog (Ac-Thr-Asp-Asp-Glu-Met-Thr(P)-Gly-Tyr-Val-Ala-Thr-NH2: Thr(P) indicates phosphorylated Thr) was used. 30 μL of a mixed solution of the inhibitor and the substrate (333.3 μM phosphorylated peptide substrate, each concentration of the inhibitor, 1.7% DMSO (in the case of Example 1, 1.5% DMSO and 0.2% EtOH), and 13 mM Tris-HCl (pH 8.0)) was kept warm at 30° C., to which 20 μL of a mixed solution of an enzyme and a metal ion kept at 4° C. (25 mU PP2A, 125 mM Tris-HCl (pH 7.5), 0.25 mM EGTA, 0.05% 2-mercaptoethanol, and 75 mM MgCl2) was added. The resulting mixture was incubated at 30° C. for 10 minutes, and then the inhibitory activity on PP2A was measured.
The inhibitory activity on PPM1A, PP2A, and PPM1D at each final concentration of the inhibitor (0, 0.1, 0.2, 0.4, 1, 2, 4, 10, or 40 μM) was measured three times with respect to each concentration, and the concentration of the inhibitor required for 50% inhibition of the enzyme activity (IC50) was determined. […]

Setting [5] is: phospho-p53 (Ser 15) peptide substrate, 30° C., 10 minutes, read-out: Rate of PPM1D inhibition (%).

T4 sequence (P67775 whole entry): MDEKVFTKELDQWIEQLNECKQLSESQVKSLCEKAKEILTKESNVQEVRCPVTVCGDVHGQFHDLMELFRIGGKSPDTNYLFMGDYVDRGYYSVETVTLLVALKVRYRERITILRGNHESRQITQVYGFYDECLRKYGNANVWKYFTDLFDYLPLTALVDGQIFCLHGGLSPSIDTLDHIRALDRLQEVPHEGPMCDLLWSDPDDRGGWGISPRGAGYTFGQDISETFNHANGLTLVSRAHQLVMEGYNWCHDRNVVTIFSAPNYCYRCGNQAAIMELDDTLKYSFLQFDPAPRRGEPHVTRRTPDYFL
T4 sequence (P30153 2-589 partner limits assumed): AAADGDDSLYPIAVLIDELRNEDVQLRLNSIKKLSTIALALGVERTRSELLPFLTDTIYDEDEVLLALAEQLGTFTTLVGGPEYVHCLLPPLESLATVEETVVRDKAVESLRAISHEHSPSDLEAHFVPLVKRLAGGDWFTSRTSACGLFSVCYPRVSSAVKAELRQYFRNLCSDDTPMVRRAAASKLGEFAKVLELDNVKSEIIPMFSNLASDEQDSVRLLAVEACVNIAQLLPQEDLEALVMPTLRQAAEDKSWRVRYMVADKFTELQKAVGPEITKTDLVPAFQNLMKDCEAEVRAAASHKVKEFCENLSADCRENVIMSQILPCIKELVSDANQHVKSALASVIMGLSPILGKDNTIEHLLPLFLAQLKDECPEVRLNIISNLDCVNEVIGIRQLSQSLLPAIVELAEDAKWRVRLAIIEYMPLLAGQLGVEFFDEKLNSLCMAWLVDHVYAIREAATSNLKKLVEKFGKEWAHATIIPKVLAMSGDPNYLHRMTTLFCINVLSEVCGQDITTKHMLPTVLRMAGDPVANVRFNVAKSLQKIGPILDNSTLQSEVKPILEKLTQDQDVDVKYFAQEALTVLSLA

Consider `COC(=O)[C@]1(C)CC(=O)C[C@]2(C)[C@@H]3C[C@@H](C)C[C@@H](OC(C)=O)[C@H]3CC(=O)[C@H]21` [Comparative Example 2, reference compound], for which the inhibition in test [1] (setting [5]) stood at 0%.
On to `CCOC(=O)/C=C/C12CC[C@](C)([C@@H]1CO)C2(C)C` [Comparative Example 3, reference compound], for which the inhibition in test [1] (setting [5]) turned out to be 0%.
Turning to `C=C1C2(/C=C/CO)CC[C@@]1(C)C2(C)C` [Comparative Example 4, reference compound], the inhibition in test [1] (setting [5]) is 0%.
Take `CC[Si](CC)(CC)O[C@@H]1C[C@H](C)C[C@@H]2[C@@H]1C[C@H](O[Si](C)(C)C(C)(C)C)[C@@H]1[C@](C)(CO)C[C@H](O)C[C@@]21C` [Example 1]: the IC50 in test [2] came to 21 ± 1.7 µM; in test [3], 0.43 ± 0.04 µM. The inhibition in test [1] (setting [5]) amounted to 97.1 ± 2.49%. The molecule further returned a Ki in test [3] of 0.59 ± 0.05 µM. 40 µM produced 11% inhibition in test [4].
Take `C[C@H]1C[C@@H](O)[C@H]2C[C@H](O[Si](C)(C)C(C)(C)C)[C@@H]3[C@](C)(CO)C[C@H](O)C[C@@]3(C)[C@@H]2C1` [Example 4]: the inhibition in test [1] is 25.1%.
`CCOC(=O)C=CC12CCC(C)(C1CO[Si](C(C)C)(C(C)C)C(C)C)C2(C)C` (stereo not shown) [Example 5] registered an IC50 in test [2] of 28 ± 4.2 µM. In test [1] (setting [5]), the inhibition was determined as 92.7 ± 1.4%. Besides, in test [3], the Ki was 2.6 ± 0.1 µM and the IC50 is 0.93 ± 0.04 µM. Also, testing at 40 µM in test [4] gave an inhibition of 14%.
Consider `CC(C)[Si](OCCCC#CCO)(C(C)C)C(C)C` [Example 10], for which the inhibition in test [1] came out at 35.4 ± 2.18%.
The same measure, in the same setting: in the case of `CSC(C)(CO[Si](C(C)C)(C(C)C)C(C)C)S(=O)(=O)c1ccc(C)cc1` (stereo not shown) [Example 11] it was 33.7 ± 4.78%.
